Measured values taken from patent publication US20080287396A1, “Phosphonated Fluoroquinolones, Antibacterial Analogs Thereof, and Methods for the Prevention and Treatment of Bone and Joint Infections” (TARGANTA THERAPEUTICA INC., priority 2005, published 2008).
≈ marks a conversion by molar mass, not a printed value.

Key:
[1] = system: S. aureus strains ATCC13709 and RN4220; assay: microbe, parasite or virus in culture; type: cell-based; details: Staphylococcus aureus, ATCC13709; CAMHB, 37° C., 18 h; data not shown; read-out: minimum inhibitory concentration (MIC)
Method: Susceptibility of S. aureus strains ATCC13709 and RN4220 to the commercial antibiotics and synthesized compounds was determined by following the guidelines set by the Clinical and Laboratory Standards Institute (formerly the National Committee for Clinical Laboratory Standards) (M26-A). Compounds were diluted two-fold serially in DMSO and transferred to cation-adjusted Mueller Hinton broth (CAMHB; Becton Dickinson). 50 μL of compounds diluted in CAMHB was mixed with 100 μL of bacteria diluted in CAMHB in 96-well microtiter plates. The final number of micro-organisms in the assay was 5×10^5 c.f.u. per mL and the final concentration of DMSO in the assay was 1.25%. Assays were set up in duplicate and incubated at 37° C. for 18 h. The concentration of compound that inhibited visible growth was reported as the minimum inhibitory concentration (MIC).

[2] = Bone powder binding, LC/MS detection; details: 100 μM compound, Tris-HCl pH 7, 0.15M NaCl, ground rat tibia bone, 10 min
Method: The ability of the example molecules to bind to bone powder was established in two parallel fashions, using either LC/MS or fluorometric detection. For LC/MS detection, a stock solution (5 mM) of the compound to be tested was added to 0.1M Tris-HCl buffer pH 7, 0.15M NaCl to reach a final concentration of 100 μM. Triplicate samples (1 mL) of the compound solutions were intensively shaken for 10 min with or without 25 mg of fresh or 20 mg of vacuum dried ground rat tibia bone. The samples were then centrifuged for 15 min at 10 000 g. The presence of unbound compound was measured by injection of 30 μL of each of the supernatants into an Agilent 1100™ LC/UV system. For fluorometric detection, an individual compound was dissolved in PBS or water (compound 52) and resuspended at a concentration of 1 mg/ml in a slurry of bone meal powder (Now Foods, Bloomingdale, Ill., USA) in PBS at 10 mg/ml. The suspension of drug/prodrug in bone meal powder was incubated at 37° C. for 1 h to allow for binding, and centrifuged at 13 000 rpm for 2 min, before recovering the supernatant. The bone meal powder pellet was then washed three times with 1 ml of PBS. All supernatants were saved and assessed for fluoroquinolone content by fluorescence measurements at excitation/emission wavelengths of 280/465 nm. The amount of fluoroquinolone was determined from standard curves generated for each experiment. Amount of drug/prodrug bound to bone powder was deduced from the difference between the input amount (typically 1 mg) and the amount recovered in the supernatants after binding. In all binding experiments, >99% of input drug was recovered in the supernatant for the parent drugs.

[3] = Levels of prodrug 52 in rat plasma in vivo
Method: Female CD rats (age, 57 to 70 days; n=3/group; Charles River, St-Constant, Canada) were administered a single bolus intravenous (tail vein) dose of compound 52 (dissolved in 0.85% NaCl) at 15.8 mg/kg of body weight, corresponding to 10 mg/kg of moxifloxacin 3. Animals were sacrificed by CO2 inhalation at the specified time points after i.v. dosing to evaluate the levels of 52 in plasma. Blood samples were collected by cardiac puncture and transferred in BD Vacutainer tubes (green cap) for plasma isolation. The plasma components were obtained by centrifugation of these samples and they were stored at −80° C. until analysis.
For the dosage of prodrug in the plasma, the standards and QCs were prepared (in duplicate) as follows: to 100 μl of blank plasma was added a spiking solution (5 μl) of the prodrug (52 in water). The range of the standards (8 levels) was from 0.06 to 25 μM and the QC levels were 0.18, 1.87 and 18.75 μM. Four samples of blank plasma without prodrug were also prepared. […]
Moxifloxacin 3 resulting from the cleavage of the prodrug was analyzed with the same method on an Agilent 1100™ series LC/MSD Trap, The extracted sample was injected into a Zorbax™ SB-Aq column (2×30 mm, 3.5μ), using 0.1% formic acid in water(aq) and 0.1% formic acid in acetonitrile(org) as the mobile phase, at a flow rate of 0.3 ml/min. […]

Binding to bone (%) LC/MS [2]	clearance from the blood circulation of rats, in words ([3]; FIG. 5)	half-life of clearance from the circulation ([3]; rat plasma, IV bolus 15.8 mg/kg, 5 min to 24 h)	SMILES	MIC [1]
–	–	–	COc1c(N2CCNC(C)C2)c(F)cc2c(=O)c(C(=O)OCC(=O)NC(P(=O)(O)O)P(=O)(O)O)cn(C3CC3)c12 (stereo not shown) [Compound 54, (1,1-Bisphosphonomethylcarbamoyl)methyl 7-(3-methylpiperazin-1-yl)-1-cyclopropyl-6-fluoro-1,4-dihydro-8-methoxy-4-oxoquinoline-3-carboxylate]	4 to 16 mg/L (≈ 6.6 to 26.4 µM)
94.2 ± 3.2%	rapid clearance	less than one hour	COc1c(N2C[C@@H]3CCCN[C@@H]3C2)c(F)cc2c(=O)c(C(=O)OCC(=O)NC(P(=O)(O)O)P(=O)(O)O)cn(C3CC3)c12 [Compound 52, (1,1-Bisphosphonomethylcarbamoyl)methyl 1-cyclopropyl-6-fluoro-1,4-dihydro-7-((4aS,7aS)-octahydropyrrolo[3,4-b]pyridin-6-yl)-8-methoxy-4-oxoquinoline-3-carboxylate]	–
